Assay results from PubChem BioAssay AID1918954 (Molecular Pharmacology Branch, DTP, NCI, 2023).

Tested on: MDA-MB-468 complex spheroids with HUVEC/MSC, viability
Experiment: Anticancer human tumor MDA-MB-468 cell line growth inhibition;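 also: spheroids exposed to agents for seven days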;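 as to viability, T/C: 100% = DMSO vehicle control viability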
Settings: for IC50: curve of first compound; for viability, T/C: stronger effect = lower value
Summary of the method: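 Complex spheroids of tumor cells with HUVEC and human MSCs, exposed to iadademstat combined with other agents. Each agent tested in half-log steps from near clinical Cmax (else 10 microM top), DMSO ≤0.25%.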

[1] = second compound 0.1 µM, first compound 0.0316 µM
[2] = second compound 0.1 µM, first compound 0.1 µM
[3] = second compound 0.1 µM, first compound 0.316 µM
[4] = second compound 0.1 µM, first compound 1 µM
[5] = second compound 0.1 µM, first compound 3.16 µM
[6] = second compound 0.1 µM, first compound 10 µM
[7] = second compound 0.316 µM, first compound 0.0316 µM
[8] = second compound 0.316 µM, first compound 0.1 µM
[9] = second compound 0.316 µM, first compound 0.316 µM
[10] = second compound 0.316 µM, first compound 1 µM
[11] = second compound 0.316 µM, first compound 3.16 µM
[12] = second compound 0.316 µM, first compound 10 µM
[13] = second compound 1 µM, first compound 0.0316 µM
[14] = second compound 1 µM, first compound 0.1 µM
[15] = second compound 1 µM, first compound 0.316 µM
[16] = second compound 1 µM, first compound 1 µM
[17] = second compound 1 µM, first compound 3.16 µM
[18] = second compound 1 µM, first compound 10 µM
[19] = second compound 3.16 µM, first compound 0.0316 µM
[20] = second compound 3.16 µM, first compound 0.1 µM
[21] = second compound 3.16 µM, first compound 0.316 µM
[22] = second compound 3.16 µM, first compound 1 µM
[23] = second compound 3.16 µM, first compound 3.16 µM
[24] = second compound 3.16 µM, first compound 10 µM
[25] = second compound 10 µM, first compound 0.0316 µM
[26] = second compound 10 µM, first compound 0.1 µM
[27] = second compound 10 µM, first compound 0.316 µM
[28] = second compound 10 µM, first compound 1 µM
[29] = second compound 10 µM, first compound 3.16 µM
[30] = second compound 10 µM, first compound 10 µM
[31] = second compound 0.1 µM, first compound 0.00949 µM
[32] = second compound 0.1 µM, first compound 0.03 µM
[33] = second compound 0.1 µM, first compound 0.0949 µM
[34] = second compound 0.1 µM, first compound 0.3 µM
[35] = second compound 0.316 µM, first compound 0.00949 µM
[36] = second compound 0.316 µM, first compound 0.03 µM
[37] = second compound 0.316 µM, first compound 0.0949 µM
[38] = second compound 0.316 µM, first compound 0.3 µM
[39] = second compound 1 µM, first compound 0.00949 µM
[40] = second compound 1 µM, first compound 0.03 µM
[41] = second compound 1 µM, first compound 0.0949 µM
[42] = second compound 1 µM, first compound 0.3 µM
[43] = second compound 3.16 µM, first compound 0.00949 µM
[44] = second compound 3.16 µM, first compound 0.03 µM
[45] = second compound 3.16 µM, first compound 0.0949 µM
[46] = second compound 3.16 µM, first compound 0.3 µM
[47] = second compound 10 µM, first compound 0.00949 µM
[48] = second compound 10 µM, first compound 0.03 µM
[49] = second compound 10 µM, first compound 0.0949 µM
[50] = second compound 10 µM, first compound 0.3 µM

In the case of CC1(C)CCC(CN2CCN(c3ccc(C(=O)NS(=O)(=O)c4ccc(NCC5CCOCC5)c([N+](=O)[O-])c4)c(Oc4cnc5[nH]ccc5c4)c3)CC2)=C(c2ccc(Cl)cc2)C1 + NC1CCC(NC2CC2c2ccccc2)CC1, the IC50 (second compound 0.1 µM) is reported as 5550 nM, the IC50 (second compound 0.316 µM) is reported as 5700 nM and the IC50 (second compound 1 µM) is reported as 3810 nM. The IC50 (second compound 3.16 µM) was 4460 nM, the IC50 (second compound 10 µM) was 4240 nM and the viability, T/C [1] was 92.8%. It also gave a viability, T/C [2] of 87%, a viability, T/C [3] of 103% and a viability, T/C [4] of 98.6%. It also gave a viability, T/C [5] of 70%, a viability, T/C [6] of 29.1% and a viability, T/C [7] of 99.8%. The viability, T/C [8] was 119%, the viability, T/C [9] was 128% and the viability, T/C [10] was 87.6%. It also gave a viability, T/C [11] of 78%, a viability, T/C [12] of 26.4% and a viability, T/C [13] of 73.9%. The viability, T/C [14] was 113%, the viability, T/C [15] was 94.8% and the viability, T/C [16] was 79.1%. It also gave a viability, T/C [17] of 54%, a viability, T/C [18] of 34.8% and a viability, T/C [19] of 87.9%. It also gave a viability, T/C [20] of 95.5%, a viability, T/C [21] of 78.1% and a viability, T/C [22] of 76.6%. The viability, T/C [23] was 61.2%, the viability, T/C [24] was 27.2% and the viability, T/C [25] was 71.2%. It also gave a viability, T/C [26] of 68.7%, a viability, T/C [27] of 67.1% and a viability, T/C [28] of 65.3%. It also gave a viability, T/C [29] of 58.1% and a viability, T/C [30] of 27.8%.
CC1COCCN1c1cc(C2(S(C)(=N)=O)CC2)nc(-c2ccnc3[nH]ccc23)n1 (stereo not given) + NC1CCC(NC2CC2c2ccccc2)CC1 gave an IC50 (second compound 0.1 µM) of 330 nM, an IC50 (second compound 0.316 µM) of 450 nM and an IC50 (second compound 1 µM) of 326 nM. The IC50 (second compound 3.16 µM) was 394 nM, the IC50 (second compound 10 µM) was 221 nM and the viability, T/C [1] was 103%. For the same molecule, the viability, T/C [2] was 73.1%, the viability, T/C [3] was 49.5% and the viability, T/C [4] was 34.9%. The viability, T/C [5] was 21.3%, the viability, T/C [6] was 10.2% and the viability, T/C [7] was 76.9%. It also gave a viability, T/C [8] of 72.2%, a viability, T/C [9] of 55.8% and a viability, T/C [10] of 35.1%. The viability, T/C [11] was 21.2%, the viability, T/C [12] was 10.6% and the viability, T/C [13] was 74.1%. The viability, T/C [14] was 71%, the viability, T/C [15] was 45.4% and the viability, T/C [16] was 34.4%. For the same molecule, the viability, T/C [17] was 25.8%, the viability, T/C [18] was 11.3% and the viability, T/C [19] was 75.5%. For the same molecule, the viability, T/C [20] was 74.6%, the viability, T/C [21] was 48.9% and the viability, T/C [22] was 36.7%. It also gave a viability, T/C [23] of 21.2%, a viability, T/C [24] of 12.4% and a viability, T/C [25] of 63.9%. The viability, T/C [26] was 54.7%, the viability, T/C [27] was 48.2% and the viability, T/C [28] was 35.2%. The viability, T/C [29] was 21.1% and the viability, T/C [30] was 8.95%.
Molecule CCN(c1cc(-c2ccc(CN3CCOCC3)cc2)cc(C(=O)NCc2c(C)cc(C)[nH]c2=O)c1C)C1CCOCC1 + NC1CCC(NC2CC2c2ccccc2)CC1 has an IC50 (second compound 0.1 µM) greater than 3000 nM, an IC50 (second compound 0.316 µM) greater than 3000 nM and an IC50 (second compound 1 µM) greater than 3000 nM. The IC50 (second compound 3.16 µM) was greater than 3000 nM, the IC50 (second compound 10 µM) was greater than 3000 nM and the viability, T/C [31] was 107%. It also gave a viability, T/C [32] of 96%, a viability, T/C [33] of 100% and a viability, T/C [34] of 88.1%. It also gave a viability, T/C (second compound 0.1 µM, first compound 0.949 µM) of 85.5%, a viability, T/C (second compound 0.1 µM, first compound 3 µM) of 83% and a viability, T/C [35] of 99.7%. It also gave a viability, T/C [36] of 102%, a viability, T/C [37] of 96.7% and a viability, T/C [38] of 102%. The viability, T/C (second compound 0.316 µM, first compound 0.949 µM) was 88.6%, the viability, T/C (second compound 0.316 µM, first compound 3 µM) was 91.9% and the viability, T/C [39] was 87%. For the same molecule, the viability, T/C [40] was 92.3%, the viability, T/C [41] was 95.7% and the viability, T/C [42] was 87.4%. For the same molecule, the viability, T/C (second compound 1 µM, first compound 0.949 µM) was 86%, the viability, T/C (second compound 1 µM, first compound 3 µM) was 74.9% and the viability, T/C [43] was 86.3%. It also gave a viability, T/C [44] of 76.8%, a viability, T/C [45] of 97.8% and a viability, T/C [46] of 99.9%. It also gave a viability, T/C (second compound 3.16 µM, first compound 0.949 µM) of 77.4%, a viability, T/C (second compound 3.16 µM, first compound 3 µM) of 88.5% and a viability, T/C [47] of 67.2%. The viability, T/C [48] was 72.2%, the viability, T/C [49] was 66.8% and the viability, T/C [50] was 74.5%. For the same molecule, the viability, T/C (second compound 10 µM, first compound 0.949 µM) was 75.8% and the viability, T/C (second compound 10 µM, first compound 3 µM) was 63.4%.
Work on Nc1ncn(C2CC(O)C(CO)S2)c(=O)n1 (stereo not given) + NC1CCC(NC2CC2c2ccccc2)CC1 yielded an IC50 (second compound 0.1 µM) of 88.3 nM, an IC50 (second compound 0.316 µM) of 90.5 nM and an IC50 (second compound 1 µM) of 80.4 nM. For the same molecule, the IC50 (second compound 3.16 µM) was 65.7 nM, the IC50 (second compound 10 µM) was 11.6 nM and the viability, T/C (second compound 0.1 µM, first compound 0.000949 µM) was 90.8%. For the same molecule, the viability, T/C (second compound 0.1 µM, first compound 0.003 µM) was 95.7%, the viability, T/C [31] was 76.8% and the viability, T/C [32] was 59.6%. For the same molecule, the viability, T/C [33] was 54.5%, the viability, T/C [34] was 35% and the viability, T/C (second compound 0.316 µM, first compound 0.000949 µM) was 89.7%. For the same molecule, the viability, T/C (second compound 0.316 µM, first compound 0.003 µM) was 80%, the viability, T/C [35] was 72.8% and the viability, T/C [36] was 71.3%. The viability, T/C [37] was 45.6%, the viability, T/C [38] was 29.8% and the viability, T/C (second compound 1 µM, first compound 0.000949 µM) was 76.5%. The viability, T/C (second compound 1 µM, first compound 0.003 µM) was 87.8%, the viability, T/C [39] was 76.1% and the viability, T/C [40] was 64.1%. For the same molecule, the viability, T/C [41] was 48.5%, the viability, T/C [42] was 38.1% and the viability, T/C (second compound 3.16 µM, first compound 0.000949 µM) was 81.2%. The viability, T/C (second compound 3.16 µM, first compound 0.003 µM) was 68.3%, the viability, T/C [43] was 76% and the viability, T/C [44] was 67.5%. It also gave a viability, T/C [45] of 41.8%, a viability, T/C [46] of 33.7% and a viability, T/C (second compound 10 µM, first compound 0.000949 µM) of 64.6%. The viability, T/C (second compound 10 µM, first compound 0.003 µM) was 53%, the viability, T/C [47] was 54.5% and the viability, T/C [48] was 43%. For the same molecule, the viability, T/C [49] was 40% and the viability, T/C [50] was 31.1%.
